According to US20210032257A1, “(E)-1-(4-(DIMETHYLAMINO)BUT-2-ENOYL)PYRROLIDIN-3-YL 4-((3-ISOPROPYL-5-METHYLPYRAZOLO[1,5-A]PYRIMIDIN-7-YL)AMINO)PIPERIDINE-1-CARBOXYLATE FOR INHIBITING CDK7” (Eli Lilly and Company, priority 2017, published 2021):
pIC50: −log10 of the molar value.

Assays:
CDK2/CycE1 = target: T1, CDK2/CycE1 (Homo sapiens, UniProt P24941); assay: ProQinase WT Profiler radiometric protein kinase assay; format: biochemical; conditions: non standard IC50 from 4 concentrations, kinase 1.5 nM, ATP 1 μM
T1 construct: purchased ProQinase
Protocol: (§1) Kinase inhibition profile of compound is determined by measuring residual activity values at four concentrations in singlicate in 320 wild-type protein kinase assays. The compounds are tested at 20 μM, 2 μM, 0.2 μM and 0.02 μM in singlicate. The final DMSO concentration in all reaction cocktails (including high and low controls) is 1%.
(§2) A radiometric protein kinase assay (33PANQINASE® Activity Assay, ProQinase) is used for measuring the kinase activity of the 320 protein kinases. All kinase assays are performed in 96-well FLASHPLATES™ in a 50 μL reaction volume. The reaction cocktail is pipetted in 4 steps in the following order:
(§3) All PKC assays (except the PKC-mu and the PKC-nu assay) additionally contain 1 mM CaCl2). 4 mM EDTA, 5 μg/mL Phosphatidylserine and 1 μg/mL 1,2-Dioleyl-glycerol. The CAMK1D, CAMK2A, CAMK2B, CAMK2D, CAMK2G, CAMK4, CAMKK1, CAMKK2, DAPK2, EEF2K, MYLK, MYLK2 and MYLK3 assays additionally contain 1 μg/mL Calmodulin and 0.5 mM CaCl2). The PRKG1 and PRKG2 assays additionally contain 1 μM cGMP. The DNA-PK assay additionally contained 2.5 μg/mL DNA.
(§4) The protein kinase reaction cocktails are incubated at 30° C. for 60 minutes. The reaction is stopped with 50 μL of 2% (v/v) H3PO4, plates are aspirated and washed two times with 200 μL 0.9% (w/v) NaCl. […] All protein kinase assays are performed with a BeckmanCoulter BIOMEK® 2000/SL robotic system. All protein kinases provided by ProQinase are expressed in Sf9 insect cells or in E. coli as recombinant GST-fusion proteins or His-tagged proteins, either as full-length or enzymatically active fragments. All kinases are produced from human cDNAs and purified by either GSH-affinity chromatography or immobilized metal. Affinity tags are removed from a number of kinases during purification. The purity of the protein kinases is examined by SDS-PAGE/Coomassie staining, the identity is checked by mass spectroscopy. Kinases from external vendors (CAR=Carna Biosciences Inc.; INV=Life Technologies (Invitrogen Corporation™); MIL=Merck-Millipore (Millipore Corporation™), see Table 1) are expressed, purified and quality-controlled by virtue of the vendors readings.
(§5) For each kinase, the median value of the cpm of three wells is defined as “low control” (n=3). This value reflects unspecific binding of radioactivity to the plate in the absence of a protein kinase but in the presence of the substrate. […] The difference between high and low control of each enzyme is taken as 100% activity. As part of the data evaluation, the low control of each kinase is subtracted from the high control value as well as from their corresponding “compound values”. The residual activity (in %) for each compound well is calculated by using the following formula: Res. Activity (%)=100×[(signal of compound−low control)/(high control−low control)]. Non Standard IC50s are calculated using a customized excel spreadsheet in conjunction with XLFit Add-in. Due to the low number of data points, (4) XL-Fit calculates a non standard IC50 using a four parametric equation where three parameters are locked to fixed values.
(§6) A: Minimum value of activity, Also known as Bottom. Fixed to 0 B: Maximum value of activity, Also known as Top. Fixed to 100 C: Inflexion point of the curve D: Hill Slope. Fixed to 1 Y: The dependent variable (i.e. what you measure as the signal) X: The independent variable (i.e. what you control, such as, dose, concentration, etc.)
(§7) The way to calculate the Non Standard IC50 is to assign random values to C parameter and repeat it iteratively. The algorithm then measures the differences in the sum of the residuals squared and will look for successive consecutive iterations where the change in the residuals is converging.

CDK9/CycT1 = target: T2, CDK9/CycT1 (Homo sapiens, UniProt P50750); assay: as above; format: biochemical; conditions: non standard IC50 from 4 concentrations, kinase 2.2 nM, ATP 1 μM
T2 construct: purchased ProQinase
T2 sequence (P50750 whole entry): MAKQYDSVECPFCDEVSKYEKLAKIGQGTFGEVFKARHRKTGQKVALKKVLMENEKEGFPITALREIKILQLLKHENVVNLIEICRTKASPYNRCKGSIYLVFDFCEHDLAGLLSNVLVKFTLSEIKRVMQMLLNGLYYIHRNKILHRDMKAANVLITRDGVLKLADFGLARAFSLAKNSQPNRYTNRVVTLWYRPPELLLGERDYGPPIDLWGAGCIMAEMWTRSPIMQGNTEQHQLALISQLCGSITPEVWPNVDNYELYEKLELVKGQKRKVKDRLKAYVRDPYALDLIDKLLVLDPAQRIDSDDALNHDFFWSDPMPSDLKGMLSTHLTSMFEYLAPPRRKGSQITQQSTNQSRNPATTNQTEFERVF
T2 sequence (O60563 whole entry partner): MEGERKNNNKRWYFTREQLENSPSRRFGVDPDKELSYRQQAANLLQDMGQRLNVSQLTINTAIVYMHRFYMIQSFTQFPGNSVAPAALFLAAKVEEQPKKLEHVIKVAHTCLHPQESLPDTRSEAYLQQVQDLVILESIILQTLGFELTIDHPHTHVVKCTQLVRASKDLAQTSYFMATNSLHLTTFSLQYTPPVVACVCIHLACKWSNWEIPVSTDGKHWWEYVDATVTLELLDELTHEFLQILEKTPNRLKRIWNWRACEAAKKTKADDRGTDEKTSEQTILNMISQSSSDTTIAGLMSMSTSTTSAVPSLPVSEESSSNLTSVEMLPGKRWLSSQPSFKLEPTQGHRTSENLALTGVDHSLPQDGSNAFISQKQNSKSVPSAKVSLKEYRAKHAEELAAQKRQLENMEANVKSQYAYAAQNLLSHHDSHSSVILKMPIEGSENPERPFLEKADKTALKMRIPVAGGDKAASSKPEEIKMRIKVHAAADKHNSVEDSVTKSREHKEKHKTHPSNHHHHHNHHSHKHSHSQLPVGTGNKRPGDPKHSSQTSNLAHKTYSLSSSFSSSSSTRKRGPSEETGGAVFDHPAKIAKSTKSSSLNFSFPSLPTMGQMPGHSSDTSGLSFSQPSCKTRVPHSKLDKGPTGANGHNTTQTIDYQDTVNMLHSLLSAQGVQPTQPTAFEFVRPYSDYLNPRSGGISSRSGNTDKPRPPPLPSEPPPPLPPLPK
Protocol: as §1, §2, §3, §4, §5, §6, §7

CDK1/CycB1 = target: T3, CDK1/CycB1 (Homo sapiens, UniProt P06493); assay: as above; format: biochemical; conditions: non standard IC50 from 4 concentrations, kinase 7 nM, ATP 1 μM
T3 construct: purchased ProQinase
T3 sequence (P06493 whole entry): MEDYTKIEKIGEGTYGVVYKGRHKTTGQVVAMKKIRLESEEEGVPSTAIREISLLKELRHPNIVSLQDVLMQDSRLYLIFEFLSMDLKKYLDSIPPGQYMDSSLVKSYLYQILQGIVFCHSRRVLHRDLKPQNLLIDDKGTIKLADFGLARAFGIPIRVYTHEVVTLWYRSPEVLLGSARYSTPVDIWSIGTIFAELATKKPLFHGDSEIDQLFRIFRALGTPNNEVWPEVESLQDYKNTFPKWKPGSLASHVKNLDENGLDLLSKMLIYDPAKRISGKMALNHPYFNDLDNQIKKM
T3 sequence (P14635 whole entry partner): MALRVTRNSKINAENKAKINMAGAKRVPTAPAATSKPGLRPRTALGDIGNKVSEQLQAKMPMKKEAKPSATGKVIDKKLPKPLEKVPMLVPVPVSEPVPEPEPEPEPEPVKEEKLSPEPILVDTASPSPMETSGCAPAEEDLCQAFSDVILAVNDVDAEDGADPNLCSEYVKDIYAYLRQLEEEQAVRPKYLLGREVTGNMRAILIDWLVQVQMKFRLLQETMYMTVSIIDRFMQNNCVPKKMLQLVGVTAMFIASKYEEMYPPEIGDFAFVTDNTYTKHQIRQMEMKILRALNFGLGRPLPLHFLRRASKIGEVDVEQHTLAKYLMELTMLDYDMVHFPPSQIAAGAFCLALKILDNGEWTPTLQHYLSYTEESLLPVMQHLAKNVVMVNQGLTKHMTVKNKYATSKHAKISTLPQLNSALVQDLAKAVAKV
Protocol: as §1, §2, §3, §4, §5, §6, §7

CDK4/CycD1 = target: T4, CDK4/CycD1 (Homo sapiens, UniProt P11802); assay: as above; format: biochemical; conditions: non standard IC50 from 4 concentrations, kinase 3.3 nM, ATP 3 μM
T4 construct: purchased ProQinase
Protocol: as §1, §2, §3, §4, §5, §6, §7

CDK7/CycH/MAT1 = target: T5, CDK7/CycH/MAT1 (Homo sapiens, UniProt P50613); assay: as above; format: biochemical; conditions: non standard IC50 from 4 concentrations, kinase 3.3 nM, ATP 3 μM
T5 construct: purchased ProQinase
T5 sequence (P50613 whole entry): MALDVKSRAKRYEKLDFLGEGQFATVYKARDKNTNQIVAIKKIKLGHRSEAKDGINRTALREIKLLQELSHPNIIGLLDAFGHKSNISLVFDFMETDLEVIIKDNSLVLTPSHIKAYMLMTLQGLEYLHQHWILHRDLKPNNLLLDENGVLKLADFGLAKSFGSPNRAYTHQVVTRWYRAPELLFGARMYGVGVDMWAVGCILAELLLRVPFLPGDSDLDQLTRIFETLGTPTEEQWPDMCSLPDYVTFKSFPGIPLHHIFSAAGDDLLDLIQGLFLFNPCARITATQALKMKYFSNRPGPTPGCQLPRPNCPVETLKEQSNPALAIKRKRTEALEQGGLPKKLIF
T5 sequence (P51946 whole entry partner): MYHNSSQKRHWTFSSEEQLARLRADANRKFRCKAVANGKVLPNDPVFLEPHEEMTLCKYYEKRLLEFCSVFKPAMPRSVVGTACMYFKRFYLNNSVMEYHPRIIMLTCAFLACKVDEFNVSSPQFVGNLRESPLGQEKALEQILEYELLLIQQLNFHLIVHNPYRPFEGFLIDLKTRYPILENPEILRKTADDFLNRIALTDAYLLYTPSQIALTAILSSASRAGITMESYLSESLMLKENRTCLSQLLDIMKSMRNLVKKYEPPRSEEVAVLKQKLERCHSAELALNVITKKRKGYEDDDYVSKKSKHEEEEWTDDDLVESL
T5 sequence (P51948 whole entry partner): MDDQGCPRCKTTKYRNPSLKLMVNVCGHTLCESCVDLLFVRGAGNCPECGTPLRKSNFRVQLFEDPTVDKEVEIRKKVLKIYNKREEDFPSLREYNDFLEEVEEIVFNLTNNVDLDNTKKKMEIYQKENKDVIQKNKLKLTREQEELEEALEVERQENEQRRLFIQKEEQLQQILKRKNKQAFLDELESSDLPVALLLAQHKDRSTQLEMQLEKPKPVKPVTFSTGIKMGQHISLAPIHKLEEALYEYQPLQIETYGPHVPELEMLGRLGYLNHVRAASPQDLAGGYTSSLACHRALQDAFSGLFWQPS
Protocol: as §1, §2, §3, §4, §5, §6, §7

CDK16/CycY = target: T6, CDK16/CycY (Homo sapiens, UniProt Q00536); assay: as above; format: biochemical; conditions: non standard IC50 from 4 concentrations, kinase 3.2 nM, ATP 0.3 μM
T6 construct: purchased ProQinase
Protocol: as §1, §2, §3, §4, §5, §6, §7

CDK8/CycC = target: T7, CDK8/CycC (Homo sapiens, UniProt P49336); assay: as above; format: biochemical; conditions: non standard IC50 from 4 concentrations, kinase 8.3 nM, ATP 1 μM
T7 construct: purchased ProQinase
T7 sequence (P49336 whole entry): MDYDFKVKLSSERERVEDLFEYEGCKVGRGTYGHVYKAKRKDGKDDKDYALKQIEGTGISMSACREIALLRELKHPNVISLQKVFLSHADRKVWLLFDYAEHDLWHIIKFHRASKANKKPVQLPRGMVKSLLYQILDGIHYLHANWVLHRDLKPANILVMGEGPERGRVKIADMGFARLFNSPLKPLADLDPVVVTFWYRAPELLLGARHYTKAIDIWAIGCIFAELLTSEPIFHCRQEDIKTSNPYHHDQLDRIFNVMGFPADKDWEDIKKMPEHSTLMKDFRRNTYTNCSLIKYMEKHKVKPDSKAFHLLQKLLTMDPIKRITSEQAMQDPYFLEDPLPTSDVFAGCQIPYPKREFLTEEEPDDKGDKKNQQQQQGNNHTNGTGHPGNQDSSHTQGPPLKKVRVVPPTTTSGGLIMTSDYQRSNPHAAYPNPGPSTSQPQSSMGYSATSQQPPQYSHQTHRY
T7 sequence (P24863 whole entry partner): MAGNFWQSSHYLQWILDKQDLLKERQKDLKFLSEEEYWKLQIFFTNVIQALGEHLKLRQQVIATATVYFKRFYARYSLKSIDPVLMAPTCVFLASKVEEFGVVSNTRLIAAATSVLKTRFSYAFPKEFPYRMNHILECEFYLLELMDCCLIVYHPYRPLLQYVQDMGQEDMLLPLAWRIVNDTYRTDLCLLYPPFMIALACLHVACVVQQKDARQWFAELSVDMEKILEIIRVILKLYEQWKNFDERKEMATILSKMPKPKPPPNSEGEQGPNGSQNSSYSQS
Protocol: as §1, §2, §3, §4, §5, §6, §7

CDK19/CycC = target: T8, CDK19/CycC (Homo sapiens, UniProt Q9BWU1); assay: as above; format: biochemical; conditions: non standard IC50 from 4 concentrations, kinase 30.9 nM, ATP 3 μM
T8 construct: purchased ProQinase
T8 sequence (Q9BWU1 whole entry): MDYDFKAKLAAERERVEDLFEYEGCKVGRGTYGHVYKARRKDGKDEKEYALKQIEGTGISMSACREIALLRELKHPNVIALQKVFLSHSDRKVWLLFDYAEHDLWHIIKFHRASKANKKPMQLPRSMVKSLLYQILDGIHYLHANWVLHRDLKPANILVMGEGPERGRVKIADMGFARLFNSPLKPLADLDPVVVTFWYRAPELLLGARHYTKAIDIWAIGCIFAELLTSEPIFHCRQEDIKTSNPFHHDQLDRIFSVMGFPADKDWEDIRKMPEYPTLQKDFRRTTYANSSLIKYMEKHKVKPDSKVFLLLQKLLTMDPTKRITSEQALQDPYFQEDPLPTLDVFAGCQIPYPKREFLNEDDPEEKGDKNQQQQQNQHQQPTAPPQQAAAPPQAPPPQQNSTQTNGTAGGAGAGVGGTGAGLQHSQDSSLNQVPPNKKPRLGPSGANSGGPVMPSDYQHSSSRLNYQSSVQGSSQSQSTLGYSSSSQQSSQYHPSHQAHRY
T8 sequence (P24863 whole entry partner): as the sequence (P24863 whole entry partner) above
Protocol: as §1, §2, §3, §4, §5, §6, §7

CDK6/CycD1 = target: T9, CDK6/CycD1 (Homo sapiens, UniProt Q00534); assay: as above; format: biochemical; conditions: non standard IC50 from 4 concentrations, kinase 3.2 nM, ATP 3 μM
T9 construct: purchased ProQinase
T9 sequence (Q00534 whole entry): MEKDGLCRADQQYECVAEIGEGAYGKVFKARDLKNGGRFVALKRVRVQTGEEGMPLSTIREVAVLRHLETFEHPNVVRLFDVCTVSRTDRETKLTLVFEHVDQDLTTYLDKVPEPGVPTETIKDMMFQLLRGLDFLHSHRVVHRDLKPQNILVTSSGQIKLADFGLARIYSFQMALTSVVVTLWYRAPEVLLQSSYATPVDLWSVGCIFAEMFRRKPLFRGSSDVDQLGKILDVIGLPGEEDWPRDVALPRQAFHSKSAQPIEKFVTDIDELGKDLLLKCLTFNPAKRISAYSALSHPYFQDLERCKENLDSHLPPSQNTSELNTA
T9 sequence (P24385 whole entry partner): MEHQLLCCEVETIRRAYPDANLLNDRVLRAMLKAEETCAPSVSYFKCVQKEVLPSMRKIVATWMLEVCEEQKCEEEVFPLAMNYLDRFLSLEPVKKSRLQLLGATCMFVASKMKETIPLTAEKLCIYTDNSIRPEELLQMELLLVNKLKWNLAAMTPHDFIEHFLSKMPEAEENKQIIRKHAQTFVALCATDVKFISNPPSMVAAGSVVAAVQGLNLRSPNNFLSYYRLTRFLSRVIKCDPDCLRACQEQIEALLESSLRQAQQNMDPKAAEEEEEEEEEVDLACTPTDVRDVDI
Protocol: as §1, §2, §3, §4, §5, §6, §7

cMyc in HCT116 cells = assay: cMyc cell based Acumen assay; conditions: Homo sapiens, HCT-116, 4 hours, read-out: Relative IC50 for cMyc

`Cc1cc(NC2CCN(C(=O)O[C@H]3CCN(C(=O)/C=C/CN(C)C)C3)CC2)n2ncc(C(C)C)c2n1` [Example 1, [(3S)-1-[(E)-4-(dimethylamino)but-2-enoyl]pyrrolidin-3-yl] 4-[(3-isopropyl-5-methyl-pyrazolo[1,5-a]pyrimidin-7-yl)amino]piperidine-1-carboxylate] was tested, and the pIC50 (CDK2/CycE1) was ≤ 4.70, the pIC50 (CDK9/CycT1) was 5.20 and the pIC50 (CDK1/CycB1) was ≤ 4.70. The pIC50 (CDK4/CycD1) was 5.55, the pIC50 (CDK7/CycH/MAT1) was 7.03 and the pIC50 (CDK16/CycY) was 5.04. For the same molecule, the pIC50 (CDK8/CycC) was 4.96, the pIC50 (CDK19/CycC) was 5.13 and the pIC50 (CDK6/CycD1) was 5.09. It also gave a pIC50 (cMyc in HCT116 cells) of 7.08.
